The values that follow come from patent publication US20250002954A1, “Novel Compound, Use Thereof, and Method for Producing Same, and Compound-Containing Composition, Method for Producing 4-Trehalosamine, and Microorganism” (Microbial Chemistry Research Foundation, priority 2021, published 2025).

In experiment [1] the target is T1, yeast alcohol dehydrogenase (ADH) (Saccharomyces cerevisiae, UniProt P00330).
T1 construct: purchased Oriental Yeast Co., Ltd
T1 sequence (P00330 1-348): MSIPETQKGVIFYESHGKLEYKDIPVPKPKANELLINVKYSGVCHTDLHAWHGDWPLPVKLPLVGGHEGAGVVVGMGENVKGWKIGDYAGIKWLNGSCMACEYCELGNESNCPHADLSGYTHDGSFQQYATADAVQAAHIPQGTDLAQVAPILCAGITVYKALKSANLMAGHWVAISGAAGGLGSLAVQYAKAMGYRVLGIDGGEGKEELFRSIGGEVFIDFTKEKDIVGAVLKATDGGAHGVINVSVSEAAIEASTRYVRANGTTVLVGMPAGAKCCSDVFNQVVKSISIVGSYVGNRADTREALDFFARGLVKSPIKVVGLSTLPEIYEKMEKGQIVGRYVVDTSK
Nature of the experiment: Evaluation of ADH-protective activity under freeze-dried condition. It is filed as biochemical. The following applies: for ADH activity after freeze-drying: freeze-dried with 1% or 3% sugar, GOL 3%. The protocol: Test samples 1 to 12 containing yeast alcohol dehydrogenase (ADH) were prepared as follows and protein-protective activity of various kinds of added sugar under freeze-dried condition was evaluated.
Yeast alcohol dehydrogenase (manufactured by Oriental Yeast Co., Ltd.) was dissolved in water at 1,000 units/mL and then diluted to 6 units/mL with TBS (manufactured by Takara Bio Inc.). 50 μL of TBS containing 2% trehalose (TRH) was added to and mixed with 50 μL of this enzyme solution and the mixture was frozen at −80° C. for 10 minutes. It was then freeze-dried for 20 hours with a freeze dryer (FLEXI-DRY, manufactured by FTS systems INC., Warminster) connected to a vacuum pump (P65D, manufactured by PHIL Sato Vac INC.), preparing freeze-dried product of enzyme with 1% TRH.
Freeze-dried product of enzyme with 3% TRH was prepared in a similar manner to the preparation method of test sample 4 except that the final concentration of trehalose was changed to 3% in the preparation method of test sample 4.
Freeze-dried product of enzyme with 1% 4TA was prepared in a similar manner to the preparation method of test sample 4 except that trehalose was changed to 4-trehalosamine (4TA) in the preparation method of test sample 4.
Freeze-dried product of enzyme with 3% 4TA was prepared in a similar manner to the preparation method of test sample 5 except that trehalose was changed to 4-trehalosamine (4TA) in the preparation method of test sample 5.
Freeze-dried product of enzyme with 1% MLT was prepared in a similar manner to the preparation method of test sample 4 except that trehalose was changed to maltose (MLT) in the preparation method of test sample 4.
Freeze-dried product of enzyme with 3% MLT was prepared in a similar manner to the preparation method of test sample 5 except that trehalose was changed to maltose (MLT) in the preparation method of test sample 5.
Freeze-dried product of enzyme with 1% SCR was prepared in a similar manner to the preparation method of test sample 4 except that trehalose was changed to sucrose (SCR) in the preparation method of test sample 4.
Freeze-dried product of enzyme with 3% SCR was prepared in a similar manner to the preparation method of test sample 5 except that trehalose was changed to sucrose (SCR) in the preparation method of test sample 5.
Freeze-dried product of enzyme with 3% GOL was prepared in a similar manner to the preparation method of test sample 5 except that trehalose was changed to glycerol (GOL) in the preparation method of test sample 5.
The enzyme solution from test sample 1, the freeze-thaw product of enzyme from test sample 2, and the freeze-dried products from test samples 3 to 12 were each diluted to 0.012 units/mL with TBS. 0.5 mM β-NAD^+ (manufactured by Oriental Yeast Co., Ltd.) and 0.62 M ethanol were added, and enzyme reaction was left to take place at room temperature for 1 hour. After the reaction, absorbance at 340 nm was measured with a microplate reader (Cytation5, manufactured by Bio Tek Instruments) (n=3, mean±S.D.). The value of this absorbance at 340 nm was divided by the value of absorbance at 340 nm for the enzyme solution of test sample 1 (control) to determine ADH activity.

Experiment [2] deals with baker's yeast (Saccharomyces cerevisiae F-7). Nature of the experiment: Evaluation of baker's yeast protective activity in freeze-dried condition. The format is cell-based. To be noted: for Numbers of live bacterial cells (relative numbers): baker's yeast freeze-dried with 6% aqueous solution (final concentration 3%), test sample 3 (FD) = 1. The protocol:
Using test samples 1 to 8 containing baker's yeast prepared in the following manner, microorganism-protective activity with various kinds of sugar in a freeze-dried condition was evaluated.
Frozen stock of baker's yeast (Saccharomyces cerevisiae F-7, owned by the Microbial Chemistry Research Foundation) was inoculated in 10 mL of YPD culture fluid (1% yeast extract, 2% polypeptone, 2% glucose) and cultured at 27° C. for 2 days while shaking it at 220 rpm. After culture, it was centrifuged at 1,000×g for 5 minutes, washed once with 10 mL of water, and then suspended in 10 mL of water, thus obtaining yeast suspension. 50 μL of water was added to and mixed with 50 μL of this yeast suspension and the mixture was left to stand at 4° C. for 12 hours, preparing control (NF).
After yeast suspension was prepared in a similar manner to test sample 1, 50 µL of 6% aqueous solution of trehalose was added to and mixed with 50 μL of the yeast suspension, and the mixture was frozen at −80° C. for 1 hour. It was then freeze-dried for 12 hours with a freeze dryer (FLEXI-DRY, manufactured by FTS systems INC., Warminster) connected to a vacuum pump (P65D, manufactured by PHIL Sato Vac INC.), preparing freeze-dried product (TRH) of yeast with TRH.
Freeze-dried product (4TA) of yeast with 4TA was obtained in a similar manner to the preparation method of test sample 4 except that trehalose was changed to 4-trehalosamine (4TA) in the preparation method of test sample 4.
Freeze-dried product (MLT) of yeast with MLT was obtained in a similar manner to the preparation method of test sample 4 except that trehalose was changed to maltose (MLT) in the preparation method of test sample 4.
Freeze-dried product (SCR) of yeast with SCR was obtained in a similar manner to the preparation method of test sample 4 except that trehalose was changed to sucrose (SCR) in the preparation method of test sample 4.
Freeze-dried product (GOL) of yeast with GOL was obtained in a similar manner to the preparation method of test sample 4 except that trehalose was changed to glycerol (GOL) in the preparation method of test sample 4.
For test samples 1 and 2, serial suspensions were made by diluting them to 1/10 with saline. 100 μL of water was added to each of the freeze-dried products of test samples 3 to 8 and diluted to 1/10 with saline to make their serial suspensions. 60 μL of water was added to 30 μL of each diluted solution.
In a 6-well microplate, 2% Agar-YPD was prepared at 3 mL/well, and 90 μL of each diluted solution was inoculated on the 2% Agar-YPD and cultured at 30° C. for two days.
Wells in which the number of colonies was measurable were selected and the numbers (relative numbers) of live bacterial cells per well on test samples 1, 2, and 4 to 8 when the number of live bacterial cells per well on test sample 3 (FD) was “1” were calculated in consideration of the dilution concentrations of those test samples.

In the case of `OC[C@H]1O[C@H](O[C@H]2[C@H](O)[C@@H](O)C(O)O[C@@H]2CO)[C@H](O)[C@@H](O)[C@@H]1O` (mixture of isomers) [maltose], the “ADH activity after freeze-drying” value in experiment [1] was “good activity was maintained”. For the same molecule, the “Numbers of live bacterial cells (relative numbers)” value (shortened to “Numbers … (relative numbers)”) in experiment [2] was 10.

`N[C@H]1[C@H](O)[C@@H](O)[C@@H](O[C@H]2O[C@H](CO)[C@@H](O)[C@H](O)[C@H]2O)O[C@@H]1CO` [4-trehalosamine]: the “ADH protection effect compared to other sugars” value in experiment [1] (freeze-dried) is recorded as “high compared to the other sugars”. In addition, the “ADH activity after freeze-drying” value in experiment [1] is “good activity was maintained”. Also, the “Numbers … (relative numbers)” value in experiment [2] was determined as 100. The “protective effect on microorganisms, comparison” value in experiment [2] (baker's yeast, freeze-dried) is listed as “stronger than when maltose or sucrose was added”.

`OCC(O)CO` [GOL, glycerol]: the “ADH activity after freeze-drying” value in experiment [1] is given as “enzyme activity significantly dropped”. For the same molecule, in experiment [2], the “Numbers … (relative numbers)” value is 0.

For `OC[C@H]1O[C@@](CO)(O[C@H]2O[C@H](CO)[C@@H](O)[C@H](O)[C@H]2O)[C@@H](O)[C@@H]1O` [sucrose], the “ADH activity after freeze-drying” value in experiment [1] is given as “good activity was maintained”. Moreover, in experiment [2], the “Numbers … (relative numbers)” value is 10.

As for `OC[C@H]1O[C@H](O[C@H]2O[C@H](CO)[C@@H](O)[C@H](O)[C@H]2O)[C@H](O)[C@@H](O)[C@@H]1O` [trehalose, reference compound], in experiment [1], the “ADH activity after freeze-drying” value was “good activity was maintained”. Moreover, the “Numbers … (relative numbers)” value in experiment [2] was 100.
